Blank lines part the entries; values can stand above or below the molecule they belong to. Bridge positions count the residues as written; N and C are the ends. Peptide text beside a SMILES is read from it.
Columns and labels:
[1] = target: T1, rat GPR14 receptor (Rattus norvegicus, UniProt P49684); experiment: Binding to rat GPR14 receptor; details: compared with Human GPR14
T1 sequence (P49684 1-386): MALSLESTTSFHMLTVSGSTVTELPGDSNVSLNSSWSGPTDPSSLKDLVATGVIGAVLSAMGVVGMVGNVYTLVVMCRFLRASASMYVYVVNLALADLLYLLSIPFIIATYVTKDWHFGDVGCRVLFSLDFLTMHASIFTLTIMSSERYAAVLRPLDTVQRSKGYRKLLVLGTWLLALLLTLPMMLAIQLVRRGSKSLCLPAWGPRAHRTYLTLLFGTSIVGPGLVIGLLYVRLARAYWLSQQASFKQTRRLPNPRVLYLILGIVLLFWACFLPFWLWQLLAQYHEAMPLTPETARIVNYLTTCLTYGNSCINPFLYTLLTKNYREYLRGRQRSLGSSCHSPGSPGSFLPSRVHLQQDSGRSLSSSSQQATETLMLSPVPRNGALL
From the text: Ligand binding assays provide a direct method for ascertaining receptor pharmacology and are adaptable to a high throughput format. The purified ligand for a receptor is radiolabeled to high specific activity (50-2000 Ci/mmol) for binding studies. […] Assay conditions for buffers, ions, pH and other modulators such as nucleotides are optimized to establish a workable signal to noise ratio for both membrane and whole cell receptor sources. For these assays, specific receptor binding is defined as total associated radioactivity minus the radioactivity measured in the presence of an excess of unlabeled competing ligand. Where possible, more than one competing ligand is used to define residual nonspecific binding.

[2] = Vasoconstrictor potency; details: mammalian
[3] = test system: intact primate; experiment: Effects in the intact primate; assay type: in vivo
[4] = target: T2, Human GPR14 (human); experiment: cell-based or functional assay
T2 chain: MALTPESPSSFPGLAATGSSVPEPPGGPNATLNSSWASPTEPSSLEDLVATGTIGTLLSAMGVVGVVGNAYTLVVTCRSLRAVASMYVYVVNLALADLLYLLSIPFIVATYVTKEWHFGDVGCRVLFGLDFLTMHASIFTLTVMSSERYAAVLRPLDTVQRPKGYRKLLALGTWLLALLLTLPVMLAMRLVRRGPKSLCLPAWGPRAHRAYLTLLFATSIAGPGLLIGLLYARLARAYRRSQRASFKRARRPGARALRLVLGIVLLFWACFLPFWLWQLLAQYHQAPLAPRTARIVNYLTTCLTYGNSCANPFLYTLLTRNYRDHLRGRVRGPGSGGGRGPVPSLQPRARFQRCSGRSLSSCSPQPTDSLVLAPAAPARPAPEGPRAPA

[5] = target: T3, Rat GPR14 receptor (rat); experiment: cell-based or functional assay
T3 chain: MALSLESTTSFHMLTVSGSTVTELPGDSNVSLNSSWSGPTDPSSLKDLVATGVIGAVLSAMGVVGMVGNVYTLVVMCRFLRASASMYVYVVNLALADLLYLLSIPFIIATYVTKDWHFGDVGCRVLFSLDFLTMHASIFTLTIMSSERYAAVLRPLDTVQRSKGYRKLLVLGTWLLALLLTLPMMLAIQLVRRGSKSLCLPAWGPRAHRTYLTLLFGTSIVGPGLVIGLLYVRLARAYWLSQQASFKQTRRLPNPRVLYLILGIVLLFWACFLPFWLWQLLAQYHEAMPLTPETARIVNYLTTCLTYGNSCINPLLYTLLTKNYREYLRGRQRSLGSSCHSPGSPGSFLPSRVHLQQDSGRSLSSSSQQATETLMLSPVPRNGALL

binding to rat GPR14 receptor [1]: binds equally well to rat GPR14 receptor
Molecule: CC(C)[C@H](NC(=O)[C@@H]1CSSC[C@H](NC(=O)[C@H](CC(=O)O)NC(=O)[C@H](C)NC(=O)[C@@H](NC(=O)CNC(=O)[C@H](C)N)[C@@H](C)O)C(=O)N[C@@H](Cc2ccccc2)C(=O)N[C@@H](Cc2c[nH]c3ccccc23)C(=O)N[C@@H](CCCCN)C(=O)N[C@@H](Cc2ccc(O)cc2)C(=O)N1)C(=O)O [fish urotensin II] (H-AGTADCFWKYCV-OH; disulfide 6-11 (inferred); N-terminus and C-terminus assumed)

EC50 of calcium mobilization [4]: 0.1 to 0.2 nM
B1: Human urotensin II (peptide)
peptide: ETPDCFWKYCV

More lines, now with the values behind:

Molecule: CC(C)[C@H](NC(=O)[C@@H]1CSSC[C@H](NC(=O)[C@H](CC(=O)O)NC(=O)[C@@H]2CCCN2C(=O)[C@@H](NC(=O)[C@@H](N)CCC(=O)O)[C@@H](C)O)C(=O)N[C@@H](Cc2ccccc2)C(=O)N[C@@H](Cc2c[nH]c3ccccc23)C(=O)N[C@@H](CCCCN)C(=O)N[C@@H](Cc2ccc(O)cc2)C(=O)N1)C(=O)O [human urotensin II]
binding to rat GPR14 receptor [1]: binds equally well to rat GPR14 receptor
vasoconstrictor potency [2]: most potent mammalian vasoconstrictor identified to date
cardiovascular effects in vivo [3]: induces systemic vasoconstriction, myocardial contractile dysfunction and, ultimately, lethal arrhythmias

B2: Fish urotensin II (peptide)
peptide: AGTADCFWKYCV
EC50 of calcium mobilization (FLIPR) [4]: 0.5 nM
EC50 of calcium mobilization (FLIPR) [5]: 0.8 nM

Source: patent US6159700A, “Method of finding agonist and antagonist to human and rat GPR14” (SmithKline Beecham Corporation, priority 1999, dated 2000)
